Holding throughout (assay type): in vivo
One test relates to Erysiphe graminis. Briefly: Powdery Mildew of Wheat (ERYSGT), protectant spray test on wheat seedlings. The note with it: wheat (cultivar Monon), sprayed to run off at 100 ppm, inoculated after 24 hours.
For another test, the system named is Puccinia recondita. Put plainly: Brown Rust (PUCCRT), protectant spray test on wheat seedlings. To be noted: wheat (cultivar Monon), sprayed to run off at 100 ppm, inoculated after 24 hours.
The next test concerns Leptosphaeria nodorum. Briefly: Glume Blotch of Wheat (LEPTNO), protectant spray test on wheat seedlings. To be noted: wheat (cultivar Monon), sprayed to run off at 100 ppm, inoculated after 24 hours.
The next test deals with Phytophthora infestans. The note with it: tomatoes (cultivar Rutgers), sprayed to run off at 100 ppm, inoculated after 24 hours.

The values below come from patent US6436963B1 (priority 1998, dated 2002).

SMILES strings stand for the structures.

As to `CNC(=O)C(=NOC)c1ccccc1COc1ncc(C(OC(C)C)c2ccccc2)cc1Cl` (stereo not shown) [Example 117], in the test on Erysiphe graminis, the “ERYSGT control of plant disease” value is “++ (++ = 75-100% control of plant disease)”. In the test on Puccinia recondita, the “PUCCRT control of plant disease” value was “++ (++ = 75-100% control of plant disease)”. For the same molecule, the “LEPTNO control of plant disease” value in the test on Leptosphaeria nodorum is recorded as “++ (++ = 75-100% control of plant disease)”. For the same molecule, in the test with Phytophthora infestans, the “PHYTIN control of plant disease” value is “− (− = 0-24% control of plant disease)”.
Consider `CNC(=O)C(=NOC)c1ccccc1COc1ncc(C(O)c2ccc(C)cc2)cc1Cl` (stereo not shown) [Example 70], for which, in the test on Erysiphe graminis, the “ERYSGT control of plant disease” value is given as “++ (++ = 75-100% control of plant disease)”. Also, the “PUCCRT control of plant disease” value in the test on Puccinia recondita was “++ (++ = 75-100% control of plant disease)”. In addition, in the test on Leptosphaeria nodorum, the “LEPTNO control of plant disease” value is listed as “++ (++ = 75-100% control of plant disease)”. For the same molecule, the “PHYTIN control of plant disease” value in the test on Phytophthora infestans is given as “++ (++ = 75-100% control of plant disease)”.
As for `CNC(=O)C(=NOC)c1ccccc1COc1ncc(C(C)OCc2ccc(OC)cc2)cc1Cl` (racemic) [Example 17], in the test on Erysiphe graminis, the “ERYSGT control of plant disease” value is given as “++ (++ = 75-100% control of plant disease)”. The “PUCCRT control of plant disease” value with Puccinia recondita is “++ (++ = 75-100% control of plant disease)”. Further, the “LEPTNO control of plant disease” value with Leptosphaeria nodorum is given as “++ (++ = 75-100% control of plant disease)”. Also, the “PHYTIN control of plant disease” value with Phytophthora infestans is recorded as “− (− = 0-24% control of plant disease)”.
In the case of `CNC(=O)C(=NOC)c1ccccc1COc1ncc(C(OC)c2ccccc2)cc1Cl` (racemic) [Example 38], the “ERYSGT control of plant disease” value with Erysiphe graminis is “+ (+ = 25-74% control of plant disease)”. The “PUCCRT control of plant disease” value in the test on Puccinia recondita is recorded as “++ (++ = 75-100% control of plant disease)”. Further, the “LEPTNO control of plant disease” value in the test on Leptosphaeria nodorum is given as “++ (++ = 75-100% control of plant disease)”. Also, the “PHYTIN control of plant disease” value in the test with Phytophthora infestans is listed as “− (− = 0-24% control of plant disease)”.
With `CNC(=O)C(=NOC)c1ccccc1COc1ncc(C(OC(C)(C)C)c2ccccc2)cc1Cl` (stereo not shown) [Example 119], the “ERYSGT control of plant disease” value with Erysiphe graminis is given as “++ (++ = 75-100% control of plant disease)”. Further, the “PUCCRT control of plant disease” value with Puccinia recondita is “++ (++ = 75-100% control of plant disease)”. The “LEPTNO control of plant disease” value in the test on Leptosphaeria nodorum is listed as “++ (++ = 75-100% control of plant disease)”. In addition, in the test on Phytophthora infestans, the “PHYTIN control of plant disease” value is listed as “++ (++ = 75-100% control of plant disease)”.
For `CNC(=O)C(=NOC)c1ccccc1COc1ncc(C(O)c2ccccc2F)cc1Cl` (racemic) [Example 65], the “ERYSGT control of plant disease” value in the test with Erysiphe graminis is listed as “++ (++ = 75-100% control of plant disease)”. Besides, the “PUCCRT control of plant disease” value in the test with Puccinia recondita is given as “++ (++ = 75-100% control of plant disease)”. In addition, the “LEPTNO control of plant disease” value in the test on Leptosphaeria nodorum is given as “++ (++ = 75-100% control of plant disease)”. Besides, in the test with Phytophthora infestans, the “PHYTIN control of plant disease” value is “++ (++ = 75-100% control of plant disease)”.
As to `CNC(=O)C(=NOC)c1ccccc1COc1ncc(C(OC(C)=O)c2ccccc2)cc1Cl` (stereo not shown) [Example 76], the “ERYSGT control of plant disease” value with Erysiphe graminis is reported as “++ (++ = 75-100% control of plant disease)”. Also, in the test with Puccinia recondita, the “PUCCRT control of plant disease” value is given as “++ (++ = 75-100% control of plant disease)”. For the same molecule, the “LEPTNO control of plant disease” value in the test with Leptosphaeria nodorum is reported as “++ (++ = 75-100% control of plant disease)”. Also, the “PHYTIN control of plant disease” value in the test with Phytophthora infestans is given as “++ (++ = 75-100% control of plant disease)”.
Consider `CNC(=O)C(=NOC)c1ccccc1COc1ncc(C(OC(C)=O)c2ccc(OC)cc2)cc1Cl` (stereo not shown) [Example 95], for which the “ERYSGT control of plant disease” value in the test with Erysiphe graminis is on record as “++ (++ = 75-100% control of plant disease)”. For the same molecule, in the test on Puccinia recondita, the “PUCCRT control of plant disease” value was “++ (++ = 75-100% control of plant disease)”. Besides, in the test on Leptosphaeria nodorum, the “LEPTNO control of plant disease” value is on record as “++ (++ = 75-100% control of plant disease)”. For the same molecule, the “PHYTIN control of plant disease” value in the test with Phytophthora infestans is “++ (++ = 75-100% control of plant disease)”.
With `CNC(=O)C(=NOC)c1ccccc1COc1ncc(C(O)c2cccs2)cc1Cl` (racemic) [Example 51], the “ERYSGT control of plant disease” value with Erysiphe graminis is reported as “++ (++ = 75-100% control of plant disease)”. Moreover, the “PUCCRT control of plant disease” value in the test on Puccinia recondita is “++ (++ = 75-100% control of plant disease)”. For the same molecule, the “LEPTNO control of plant disease” value in the test on Leptosphaeria nodorum is on record as “++ (++ = 75-100% control of plant disease)”. For the same molecule, in the test with Phytophthora infestans, the “PHYTIN control of plant disease” value was “++ (++ = 75-100% control of plant disease)”.
Consider `CNC(=O)C(=NOC)c1ccccc1COc1ncc(C(OC(C)=O)c2ccccc2Cl)cc1Cl` (stereo not shown) [Example 74], for which, in the test on Erysiphe graminis, the “ERYSGT control of plant disease” value is “++ (++ = 75-100% control of plant disease)”. The “PUCCRT control of plant disease” value with Puccinia recondita was “++ (++ = 75-100% control of plant disease)”. For the same molecule, the “LEPTNO control of plant disease” value with Leptosphaeria nodorum is reported as “++ (++ = 75-100% control of plant disease)”. Besides, the “PHYTIN control of plant disease” value in the test with Phytophthora infestans is recorded as “++ (++ = 75-100% control of plant disease)”.
Turning to `CNC(=O)C(=NOC)c1ccccc1COc1ncc(C(OC(C)=O)c2cccc(F)c2)cc1Cl` (stereo not shown) [Example 96], the “ERYSGT control of plant disease” value in the test on Erysiphe graminis is “++ (++ = 75-100% control of plant disease)”. Besides, the “PUCCRT control of plant disease” value with Puccinia recondita is reported as “++ (++ = 75-100% control of plant disease)”. Further, in the test with Leptosphaeria nodorum, the “LEPTNO control of plant disease” value is “++ (++ = 75-100% control of plant disease)”. For the same molecule, the “PHYTIN control of plant disease” value with Phytophthora infestans is listed as “++ (++ = 75-100% control of plant disease)”.
Turning to `CNC(=O)C(=NOC)c1ccccc1COc1ncc(C(O)c2cccc3ccccc23)cc1Cl` (stereo not shown) [Example 103], in the test on Erysiphe graminis, the “ERYSGT control of plant disease” value is recorded as “+ (+ = 25-74% control of plant disease)”. Further, in the test on Puccinia recondita, the “PUCCRT control of plant disease” value is listed as “++ (++ = 75-100% control of plant disease)”. In addition, in the test on Leptosphaeria nodorum, the “LEPTNO control of plant disease” value is listed as “++ (++ = 75-100% control of plant disease)”. In the test on Phytophthora infestans, the “PHYTIN control of plant disease” value is on record as “++ (++ = 75-100% control of plant disease)”.
As to `CNC(=O)C(=NOC)c1ccccc1COc1ncc(C(OC(C)=O)c2ccc(C)cc2C)cc1Cl` (stereo not shown) [Example 92], the “ERYSGT control of plant disease” value in the test on Erysiphe graminis is recorded as “++ (++ = 75-100% control of plant disease)”. In the test with Puccinia recondita, the “PUCCRT control of plant disease” value is “++ (++ = 75-100% control of plant disease)”. Further, the “LEPTNO control of plant disease” value in the test on Leptosphaeria nodorum is recorded as “++ (++ = 75-100% control of plant disease)”. In the test on Phytophthora infestans, the “PHYTIN control of plant disease” value is “++ (++ = 75-100% control of plant disease)”.
Take `CNC(=O)C(=NOC)c1ccccc1COc1ncc(C(O)c2ccccc2)cc1Cl` (racemic) [Example 1]: in the test on Erysiphe graminis, the “ERYSGT control of plant disease” value is “++ (++ = 75-100% control of plant disease)”. For the same molecule, the “PUCCRT control of plant disease” value in the test on Puccinia recondita is recorded as “++ (++ = 75-100% control of plant disease)”. For the same molecule, in the test with Leptosphaeria nodorum, the “LEPTNO control of plant disease” value was “++ (++ = 75-100% control of plant disease)”. In the test with Phytophthora infestans, the “PHYTIN control of plant disease” value is “++ (++ = 75-100% control of plant disease)”.
As for `CNC(=O)C(=NOC)c1ccccc1COc1ncc(C(C)O)cc1Cl` (racemic) [Example 40], the “ERYSGT control of plant disease” value in the test on Erysiphe graminis is reported as “+ (+ = 25-74% control of plant disease)”. The “PUCCRT control of plant disease” value with Puccinia recondita is given as “++ (++ = 75-100% control of plant disease)”. Moreover, in the test with Leptosphaeria nodorum, the “LEPTNO control of plant disease” value was “++ (++ = 75-100% control of plant disease)”. The “PHYTIN control of plant disease” value in the test with Phytophthora infestans was “+ (+ = 25-74% control of plant disease)”.
With `CNC(=O)C(=NOC)c1ccccc1COc1ncc(C(OC(C)=O)c2ccc3c(c2)OCO3)cc1Cl` (racemic) [Example 60], in the test on Erysiphe graminis, the “ERYSGT control of plant disease” value is “++ (++ = 75-100% control of plant disease)”. Moreover, the “PUCCRT control of plant disease” value with Puccinia recondita is “++ (++ = 75-100% control of plant disease)”. The “LEPTNO control of plant disease” value in the test with Leptosphaeria nodorum is given as “++ (++ = 75-100% control of plant disease)”. The “PHYTIN control of plant disease” value in the test on Phytophthora infestans is recorded as “++ (++ = 75-100% control of plant disease)”.
